Active and inactive are the calls of the source. The calls are words filed in the database; no cut-off is given here.
What was measured:
[1] = Inhibition of LPS-induced NO production in mouse BV-2 cells at 10 uM measured after 24 hrs followed by induced with LPS for another 24 hrs by ELISA relative to control; type: functional
Mus musculus [2] = assay: Anti-neuroinflammatory activity against LPS-induced male C57BL/6 mouse assessed as suppression of LPS-induced p-NF-kappaB protein level at 20 mg/kg, po administered for 3 days followed by induced with LPS by tail vein injection by Western blot analysis; type: functional, organism-based; conditions: time 3.0 day
Mus musculus [3] = assay: Anti-neuroinflammatory activity against LPS-induced male C57BL/6 mouse assessed as suppression of LPS-induced p-NF-kappaB protein level at 10 mg/kg, po administered for 3 days followed by induced with LPS by tail vein injection by Western blot analysis; type: functional, organism-based; conditions: time 3.0 day
BV-2 [4] = assay: Anti-inflammatory activity against LPS-induced mouse BV-2 cells assessed as decrease in LPS-induced IL-1beta mRNA expression at 5 uM incubated for 4 hrs followed by LPS induced for 12 hrs by RT-PCR analysis relative to control; type: functional, cell-based; conditions: time 16.0 hrs
Mus musculus [5] = assay: Anti-neuroinflammatory activity against LPS-induced male C57BL/6 mouse assessed as suppression of LPS-induced p-I-kappaB-alpha protein level at 10 mg/kg, po administered for 3 days followed by induced with LPS by tail vein injection by Western blot analysis; type: functional, organism-based; conditions: time 3.0 day
Mus musculus [6] = assay: Anti-neuroinflammatory activity against LPS-induced male C57BL/6 mouse assessed as suppression of LPS-induced microglial activation by measuring decrease in IBA1 fluorescence intensity at 20 mg/kg, po administered for 3 days followed by induced with LPS by tail vein injection by immunofluorescence staining based assay; type: functional, organism-based; conditions: time 3.0 day
Mus musculus [7] = assay: Anti-neuroinflammatory activity against LPS-induced male C57BL/6 mouse assessed as suppression of LPS-induced TNF-alphamRNA level at 20 mg/kg, po administered for 3 days followed by induced with LPS by tail vein injection by RT-PCR analysis; type: functional, organism-based; conditions: time 3.0 day
BV-2 [8] = assay: Anti-inflammatory activity against LPS-induced mouse BV-2 cells assessed as decrease in LPS-induced TNFalpha production incubated for 4 hrs followed by LPS induced for 24 hrs by Western blotting analysis; type: functional, cell-based; conditions: dose 5-20 µM, time 28.0 hrs
BV-2 [9] = assay: Anti-inflammatory activity against LPS-induced mouse BV-2 cells assessed as decrease in LPS-induced TLR4 production incubated for 4 hrs followed by LPS induced for 24 hrs by […]; type: functional, cell-based; conditions: dose 5-20 µM, time 28.0 hrs
[10] = Acute toxicity in C57BL/6 mouse assessed as morphological changes in liver by measuring signs of inflammation at 500 mg/kg, po single dose measured on day 8 by H and E staining based assay; type: organism-based; conditions: in vivo, 192 h, time 8 day
BV-2 [11] = assay: Anti-inflammatory activity against LPS-induced mouse BV-2 cells assessed as decrease in LPS-induced IL-6 mRNA expression at 10 to 20 uM incubated for 4 hrs followed by LPS induced for 12 hrs by RT-PCR analysis relative to control; type: functional, cell-based; conditions: dose 10-20 µM, time 16.0 hrs
BV-2 [12] = assay: Anti-inflammatory activity against LPS-induced mouse BV-2 cells assessed as decrease in LPS-induced IL-6 mRNA expression at 5 uM incubated for 4 hrs followed by LPS induced for 12 hrs by RT-PCR analysis relative to control; type: functional, cell-based; conditions: time 16.0 hrs
BV-2 [13] = assay: Anti-inflammatory activity against LPS-induced mouse BV-2 cells assessed as decrease in LPS-induced TNF-alpha mRNA expression at 10 to 20 uM incubated for 4 hrs followed by LPS induced for 12 hrs by RT-PCR analysis relative to control; type: functional, cell-based; conditions: dose 10-20 µM, time 16.0 hrs
BV-2 [14] = assay: Anti-inflammatory activity against LPS-induced mouse BV-2 cells assessed as decrease in LPS-induced Cyclooxygenase-2 production at 5 uM incubated for 4 hrs followed by LPS induced for 24 hrs by Western blotting analysis; type: functional, cell-based

With O=c1[nH]c2ccc(Nc3ncnc4c3ccn4Cc3ccc(F)cc3)cc2[nH]1 the inhibition at 10 µM [1] was 95%, the Activity (Mus musculus [2]) was “Active” and the Activity (Mus musculus [3]) was “Not active; No Significant Effect Observed Vs Lps”. The Activity (BV-2 [4]) was “Not active; No Significant Effect Observed Vs Lps”, the Activity (Mus musculus [5]) was “Not active; No Significant Effect Observed Vs Lps” and the Activity (Mus musculus [6]) was “Active”. For the same compound, the Activity (Mus musculus [7]) was “Active”, the Activity (BV-2 [8]) was “Dose-dependent-effect” and the Activity (BV-2 [9]) was “Dose-dependent-effect”. For the same compound, the Activity [10] was “Non-toxic”, the Activity (BV-2 [11]) was “Active” and the Activity (BV-2 [12]) was “Not active; No Significant Effect Observed Vs Lps”. For the same compound, the Activity (BV-2 [13]) was “Active” and the Activity (BV-2 [14]) was “Not active; No Significant Effect Observed Vs Lps”.

From ChEMBL document CHEMBL6096669, “Design and synthesis of novel derivatives of bisepoxylignans as potent anti-inflammatory agents involves the modulation of the M1/M2 microglia phenotype via TLR4/NF-κB signaling pathway” (Eur J Med Chem, 2025)
